Reference: PubChem BioAssay (NCI)
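Abbreviation: GI50, concentration required for 50% inhibition of growth. The concentration for full growth arrest is given as TGI.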

Key:
Experiment in all cases: NCI anticancer screen, dose series, 384-well format
786-0 renal = test system: 786-0 renal
A498 renal = test system: A498 renal
A549 NSCLC = test system: A549 NSCLC
ACHN renal = test system: ACHN renal
BT-549 breast = test system: BT-549 breast
CAKI-1 renal = test system: CAKI-1 renal
COLO 205 colon = test system: COLO 205 colon
DU-145 prostate = test system: DU-145 prostate
EKVX NSCLC = test system: EKVX NSCLC
HCT-116 colon = test system: HCT-116 colon
HCT-15 colon = test system: HCT-15 colon
HL-60(TB) leukemia = test system: HL-60(TB) leukemia
HOP-62 NSCLC = test system: HOP-62 NSCLC
HOP-92 NSCLC = test system: HOP-92 NSCLC
HS 578T breast = test system: HS 578T breast
HT29 colon = test system: HT29 colon
IGROV1 ovarian = test system: IGROV1 ovarian
K-562 leukemia = test system: K-562 leukemia
KM12 colon = test system: KM12 colon
M14 melanoma = test system: M14 melanoma
MALME-3M melanoma = test system: MALME-3M melanoma
MCF7 breast = test system: MCF7 breast
MDA-MB-231 breast = test system: MDA-MB-231 breast
MDA-MB-435 melanoma = test system: MDA-MB-435 melanoma
MDA-MB-468 breast = test system: MDA-MB-468 breast
MOLT-4 leukemia = test system: MOLT-4 leukemia
NCI-H226 lung = test system: NCI-H226 lung
NCI-H23 lung = test system: NCI-H23 lung
NCI-H322M lung = test system: NCI-H322M lung
NCI-H460 NSCLC = test system: NCI-H460 NSCLC
NCI-H522 lung = test system: NCI-H522 lung
OVCAR-3 ovarian = test system: OVCAR-3 ovarian
OVCAR-4 ovarian = test system: OVCAR-4 ovarian
OVCAR-5 ovarian = test system: OVCAR-5 ovarian
OVCAR-8 ovarian = test system: OVCAR-8 ovarian
PC-3 prostate = test system: PC-3 prostate
RXF 393 renal = test system: RXF 393 renal
SF-268 CNS = test system: SF-268 CNS
SF-295 CNS = test system: SF-295 CNS
SF-539 CNS = test system: SF-539 CNS
SK-MEL-2 melanoma = test system: SK-MEL-2 melanoma
SK-MEL-28 melanoma = test system: SK-MEL-28 melanoma
SK-MEL-5 melanoma = test system: SK-MEL-5 melanoma
SK-OV-3 ovarian = test system: SK-OV-3 ovarian
SN12C renal = test system: SN12C renal
SNB-19 CNS = test system: SNB-19 CNS
SNB-75 CNS = test system: SNB-75 CNS
SR leukemia = test system: SR leukemia
SW-620 colon = test system: SW-620 colon
T-47D breast = test system: T-47D breast
TK-10 renal = test system: TK-10 renal
U251 glioblastoma = test system: U251 glioblastoma
UACC-257 melanoma = test system: UACC-257 melanoma
UACC-62 melanoma = test system: UACC-62 melanoma
UO-31 renal = test system: UO-31 renal

`COC1(C(=O)N[C@@H](C)c2ccc(-n3cc(F)cn3)nc2)CCC(c2nc(C)cc(Nc3cc(C)[nH]n3)n2)CC1` (stereo not given in full) was tested, and the GI50 ([…]-0 renal) was 1.82 µM, the TGI (786-0 renal) was 6.42 µM and the GI50 (A498 renal) was 1.83 µM. It also gave a TGI (A498 renal) of 4.4 µM, a GI50 (A549 NSCLC) of 2.41 µM and a TGI (A549 NSCLC) of 12 µM. It also gave a GI50 (ACHN renal) of 0.896 µM, a TGI (ACHN renal) of 4.45 µM and a GI50 (BT-549 breast) of 0.813 µM. The TGI (BT-549 breast) was 2.56 µM, the GI50 (CAKI-1 renal) was 1.28 µM and the TGI (CAKI-1 renal) was 2.69 µM. For the same compound, the GI50 (COLO 205 colon) was 13.8 µM, the TGI (COLO 205 colon) was 26.9 µM and the GI50 (DU-145 prostate) was 1.72 µM. For the same compound, the TGI (DU-145 prostate) was 4.04 µM, the GI50 (EKVX NSCLC) was 0.545 µM and the TGI (EKVX NSCLC) was 2.29 µM. It also gave a GI50 (HCT-116 colon) of 4.04 µM, a TGI (HCT-116 colon) of 17.3 µM and a GI50 (HCT-15 colon) of 4.58 µM. The TGI (HCT-15 colon) was 17.2 µM, the GI50 (HL-60(TB) leukemia) was 5.4 µM and the TGI (HL-60(TB) leukemia) was 18.5 µM. For the same compound, the GI50 (HOP-62 NSCLC) was 1.46 µM, the TGI (HOP-62 NSCLC) was 6.13 µM and the GI50 (HOP-92 NSCLC) was 0.691 µM. The TGI (HOP-92 NSCLC) was 2.67 µM, the GI50 (HS 578T breast) was 0.253 µM and the TGI (HS 578T breast) was 1.58 µM. For the same compound, the GI50 (HT29 colon) was 4.94 µM, the TGI (HT29 colon) was 19.1 µM and the GI50 (IGROV1 ovarian) was 0.304 µM. The TGI (IGROV1 ovarian) was 1.37 µM, the GI50 (K-562 leukemia) was 1.7 µM and the TGI (K-562 leukemia) was 11.6 µM. The GI50 (KM12 colon) was 5.12 µM, the TGI (KM12 colon) was 18.3 µM and the GI50 (M14 melanoma) was 11.3 µM. It also gave a TGI (M14 melanoma) of 23.4 µM, a GI50 (MALME-3M melanoma) of 11.3 µM and a TGI (MALME-3M melanoma) of 23.6 µM. It also gave a GI50 (MCF7 breast) of 2 µM, a TGI (MCF7 breast) of 14.4 µM and a GI50 (MDA-MB-231 breast) of 2.6 µM. For the same compound, the TGI (MDA-MB-231 breast) was 14 µM, the GI50 (MDA-MB-435 melanoma) was 11.7 µM and the TGI (MDA-MB-435 melanoma) was 24.1 µM. For the same compound, the GI50 (MDA-MB-468 breast) was 1.74 µM, the TGI (MDA-MB-468 breast) was 4.8 µM and the GI50 (MOLT-4 leukemia) was 1.84 µM. It also gave a TGI (MOLT-4 leukemia) of 5.62 µM, a GI50 (NCI-H226 lung) of 0.246 µM and a TGI (NCI-H226 lung) of 2.08 µM. It also gave a GI50 (NCI-H23 lung) of 0.629 µM, a TGI (NCI-H23 lung) of 10.6 µM and a GI50 (NCI-H322M lung) of 2.12 µM. The TGI (NCI-H322M lung) was 11.1 µM, the GI50 (NCI-H460 NSCLC) was 0.0527 µM and the TGI (NCI-H460 NSCLC) was 13.7 µM. It also gave a GI50 (NCI-H522 lung) of 1.19 µM, a TGI (NCI-H522 lung) of 3.11 µM and a GI50 (OVCAR-3 ovarian) of 1.67 µM. For the same compound, the TGI (OVCAR-3 ovarian) was 12.8 µM, the GI50 (OVCAR-4 ovarian) was 2.12 µM and the TGI (OVCAR-4 ovarian) was 17.8 µM. The GI50 (OVCAR-5 ovarian) was 2.31 µM, the TGI (OVCAR-5 ovarian) was 13.9 µM and the GI50 (OVCAR-8 ovarian) was 3.35 µM. The TGI (OVCAR-8 ovarian) was 12.9 µM, the GI50 (PC-3 prostate) was 3.42 µM and the TGI (PC-3 prostate) was 15.7 µM. It also gave a GI50 (RXF 393 renal) of 0.138 µM, a TGI (RXF 393 renal) of 0.671 µM and a GI50 (SF-268 CNS) of 1.38 µM. It also gave a TGI (SF-268 CNS) of 3.69 µM, a GI50 (SF-295 CNS) of 1.39 µM and a TGI (SF-295 CNS) of 4.21 µM. It also gave a GI50 (SF-539 CNS) of 0.226 µM, a TGI (SF-539 CNS) of 1.12 µM and a GI50 (SK-MEL-2 melanoma) of 11 µM. It also gave a TGI (SK-MEL-2 melanoma) of 23.1 µM, a GI50 (SK-MEL-28 melanoma) of 12 µM and a TGI (SK-MEL-28 melanoma) of 24.5 µM. The GI50 (SK-MEL-5 melanoma) was 2.3 µM, the TGI (SK-MEL-5 melanoma) was 11.2 µM and the GI50 (SK-OV-3 ovarian) was 0.605 µM. For the same compound, the TGI (SK-OV-3 ovarian) was 2.64 µM, the GI50 (SN12C renal) was 0.493 µM and the TGI (SN12C renal) was 10 µM. For the same compound, the GI50 (SNB-19 CNS) was 3.69 µM, the TGI (SNB-19 CNS) was 18.1 µM and the GI50 (SNB-75 CNS) was 0.285 µM. The TGI (SNB-75 CNS) was 1.32 µM, the GI50 (SR leukemia) was 2.13 µM and the TGI (SR leukemia) was 5.27 µM. It also gave a GI50 (SW-620 colon) of 2.58 µM, a TGI (SW-620 colon) of 17 µM and a GI50 (T-47D breast) of 2.28 µM. The TGI (T-47D breast) was 10.7 µM, the GI50 (TK-10 renal) was 1.4 µM and the TGI (TK-10 renal) was 3.93 µM. The GI50 (U251 glioblastoma) was 1.54 µM, the TGI (U251 glioblastoma) was 12.3 µM and the GI50 (UACC-257 melanoma) was 15.7 µM. For the same compound, the TGI (UACC-257 melanoma) was 29.3 µM, the GI50 (UACC-62 melanoma) was 5.55 µM and the TGI (UACC-62 melanoma) was 18.5 µM. For the same compound, the GI50 (UO-31 renal) was 1.14 µM and the TGI (UO-31 renal) was 2.78 µM.
